Experimental data reported in US20230141603A1, “BENZODIAZEPINE DERIVATIVES AS GABA A GAMMA1 PAM” (Hoffmann-La Roche Inc., priority 2021, published 2023).

Experiments:
[1] = molecular target: T1, h-GABAA α1β3γ2 (Homo sapiens, UniProt P14867+P18507); test: Radioligand binding assay, [3H]Flumazenil competition, HEK293F membranes; settings: for γ2/γ1 Selectivity Ratio: Ki α1β3γ2 (nM)/Ki α2β2γ1 (nM); for LogSel: Log[Ki α1β3γ2 (nM)/Ki α2β2γ1 (nM)]
T1 construct: expressed in transfected cells; host or cells: HEK293F cells, membranes
Protocol: The affinity of compounds at GABAA γ2 subunit-containing receptors was measured by competition for [^3H]Flumazenil (81.1 Ci/mmol; Roche) binding to HEK293F cells expressing human (transiently transfected) receptors of composition α1β3γ2.
Harvested pellets from HEK293F cells expressing the different GABAA γ2 receptor subtypes were resuspended in Mannitol Buffer pH 7.2-7.4 and processed as described above for the cells expressing the GABAA γ1 subunit-containing receptors.
Assays were incubated to equilibrium for 1 hour at 4° C. and harvested onto GF/C uni-filters (Packard) by filtration using a Packard harvester and washing with ice-cold wash buffer (50 mM Tris; pH 7.5). After drying, filter-retained radioactivity was detected by liquid scintillation counting. Ki values were calculated using Excel-Fit (Microsoft) and are the means of two determinations.

[2] = molecular target: T2, h-GABAA α2β2γ1 (Homo sapiens, UniProt P47869+Q8N1C3); test: Two-electrode voltage clamp electrophysiology in Xenopus oocytes, modulation of GABA EC20 current; type: cell-based; design: host or cells: Xenopus laevis oocytes, RNA micro-injection; settings: Table 2; for Efficacy (GABA)%: % modulation of GABA EC20 = 100*(Fold increase−1), compound at approx. 30-fold Ki; for Fold increase h-GABA-A α2β2γ1 oocyte @ 30-fold Ki: compound at approx. 30-fold its Ki α2β2γ1, GABA EC20, Xenopus oocytes
T2 sequence (P47869 29-451): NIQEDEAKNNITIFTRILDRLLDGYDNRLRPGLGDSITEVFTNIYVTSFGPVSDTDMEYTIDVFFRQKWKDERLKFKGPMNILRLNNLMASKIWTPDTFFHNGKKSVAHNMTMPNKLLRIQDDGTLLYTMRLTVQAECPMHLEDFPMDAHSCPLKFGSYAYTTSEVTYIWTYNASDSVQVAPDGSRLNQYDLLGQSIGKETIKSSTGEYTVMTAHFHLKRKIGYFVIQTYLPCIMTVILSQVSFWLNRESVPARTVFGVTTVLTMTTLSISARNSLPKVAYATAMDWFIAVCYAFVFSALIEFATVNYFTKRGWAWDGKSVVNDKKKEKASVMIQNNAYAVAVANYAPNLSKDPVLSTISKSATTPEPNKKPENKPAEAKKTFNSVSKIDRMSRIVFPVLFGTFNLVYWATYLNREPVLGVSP
T2 sequence (P47870 25-512 partner limits assumed): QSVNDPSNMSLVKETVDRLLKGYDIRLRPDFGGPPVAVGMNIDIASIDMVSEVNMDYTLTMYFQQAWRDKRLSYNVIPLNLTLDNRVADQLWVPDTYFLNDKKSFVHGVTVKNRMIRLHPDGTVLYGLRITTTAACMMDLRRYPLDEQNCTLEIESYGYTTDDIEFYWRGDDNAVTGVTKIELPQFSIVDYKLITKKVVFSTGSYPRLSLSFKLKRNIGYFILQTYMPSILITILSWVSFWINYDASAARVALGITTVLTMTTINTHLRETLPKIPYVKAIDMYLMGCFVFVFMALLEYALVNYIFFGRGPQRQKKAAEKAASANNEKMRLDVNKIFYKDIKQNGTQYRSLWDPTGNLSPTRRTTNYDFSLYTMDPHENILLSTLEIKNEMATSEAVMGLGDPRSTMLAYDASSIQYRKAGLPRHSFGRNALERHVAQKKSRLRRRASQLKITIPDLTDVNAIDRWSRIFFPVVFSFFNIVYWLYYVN
T2 sequence (Q8N1C3 36-465): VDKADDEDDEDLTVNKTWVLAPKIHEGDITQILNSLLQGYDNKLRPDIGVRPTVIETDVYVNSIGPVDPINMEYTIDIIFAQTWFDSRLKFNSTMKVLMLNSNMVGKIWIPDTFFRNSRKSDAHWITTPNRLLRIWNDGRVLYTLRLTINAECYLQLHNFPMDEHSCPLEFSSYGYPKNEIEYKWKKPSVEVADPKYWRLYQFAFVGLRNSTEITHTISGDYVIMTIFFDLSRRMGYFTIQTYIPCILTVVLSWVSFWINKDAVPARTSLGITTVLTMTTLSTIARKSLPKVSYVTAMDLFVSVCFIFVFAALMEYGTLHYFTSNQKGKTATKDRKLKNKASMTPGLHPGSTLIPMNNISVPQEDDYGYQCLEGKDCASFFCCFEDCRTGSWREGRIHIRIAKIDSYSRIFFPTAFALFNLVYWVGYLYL
Protocol: Xenopus laevis oocytes at maturation stages V-VJ were used for the expression of cloned mRNA encoding GABAA receptor subunits. Oocytes ready for RNA micro-injection were bought from Ecocyte, Castrop-Rauxel, Germany and stored in modified Barth's medium (composition in mM: NaCl 88, KCl 1, NaHCO3 2.4, HEPES 10, MgSO4 0.82, CaNO3 0.33, CaCl2 0.33, pH=7.5) at 20° C. until the experiment.
Oocytes were plated in 96-well plates for microinjection using the Roboinject automated instrument (MultiChannelSystems, Reutlingen, Germany). Approximately 50 nL of an aqueous solution containing the RNA transcripts for the subunits of the desired GABAA receptor subtype was injected into each oocyte. […] Oocytes were kept in modified Barth's medium (composition in mM: NaCl 88, KCl 1, NaHCO3 […], HEPES 10, MgSO4 0.82, CaNO3 0.33, CaCl2 0.33, pH=7.5) at 20° C. until the experiment.
Electrophysiological experiments were performed using the Roboocyte instrument (MultiChannelSystems, Reutlingen, Germany) on days 3 to 5 after the micro-injection of mRNA. During the experiment the oocytes were constantly superfused by a solution containing (in mM) NaCl 90, KCl 1, HEPES 5, MgCl2 1, CaCl2 1 (pH 7.4). Oocytes were impaled by two glass microelectrodes (resistance: 0.5-0.8 MΩ) which were filled with a solution containing KCl 1M+K-acetate 1.5 M and voltage-clamped to −80 mV. The recordings were performed at room temperature using the Roboocyte two-electrode voltage clamp system (Multichannelsystem). After an initial equilibration period of 1.5 min GABA was added for 1.5 min at a concentration evoking approximately 20% of a maximal current response (EC20). After another rest interval of 2.5 min GABA was again added evoking a response of similar amplitude and shape. […] Current traces were recorded at a digitization rate of 10 Hz during and shortly before and after the GABA application.
Each compound and concentration was tested on at least 3 oocytes. Different oocytes were used for different compound concentrations.
For the analysis, the digitized current traces of the first and second GABA response were superimposed and, if necessary, rescaled to equal maximal amplitudes. The ratio between the two responses during the time interval of test compound application was calculated point by point. The extremum of the resulting “ratio trace” was taken as the efficacy (“Fold increase”) of the compound expressed as “% modulation of GABA EC20” (100*(Fold increase−1)).

Structure (SMILES)	Ki [1] [nM]	γ2/γ1 Selectivity Ratio ([1]; Table 1)	LogSel ([1]; Table 1)	γ2/γ1 Selectivity Ratio ([1]; Table 3)	LogSel ([1]; Table 3)	Efficacy (GABA)% [2] [%]	Fold increase h-GABA-A α2β2γ1 oocyte @ 30-fold Ki [2]
Cc1nnc2n1-c1ccc(Br)c(Cl)c1C(c1c(F)cccc1F)=NC2 [Example 1, 8-bromo-7-chloro-6-(2,6-difluorophenyl)-1-methyl-4H-[1,2,4]triazolo[4,3-a][1,4]benzodiazepine]	146	18.3	1.26	18.3	1.3	77	1.77
Fc1ccccc1C1=NCc2nnc(C3CC3)n2-c2ccc(Br)c(Cl)c21 [Example 2, 8-bromo-7-chloro-1-cyclopropyl-6-(2-fluorophenyl)-4H-[1,2,4]triazolo[4,3-a][1,4]benzodiazepine]	486	10.1	1.01			84	1.84
Fc1ccccc1C1=NCc2nnc(-c3cccnn3)n2-c2ccc(Br)c(Cl)c21 [Example 3, 8-bromo-7-chloro-6-(2-fluorophenyl)-1-pyridazin-3-yl-4H-[1,2,4]triazolo[4,3-a][1,4]benzodiazepine]	453	51.2	1.71			113	2.13
Cc1nnc2n1-c1ccc(Cl)c(Cl)c1C(c1ccccc1F)=NC2 [Example 4, 7,8-dichloro-6-(2-fluorophenyl)-1-methyl-4H-[1,2,4]triazolo[4,3-a][1,4]benzodiazepine]	795	12.1	1.08			73	1.73
Cc1nnc2n1-c1ccc(Cl)c(Cl)c1C(c1c(F)cccc1F)=NC2 [Example 5, 7,8-dichloro-6-(2,6-difluorophenyl)-1-methyl-4H-[1,2,4]triazolo[4,3-a][1,4]benzodiazepine]	137	20.8	1.32			57	1.57
Cc1nnc2n1-c1ccc(C3CC3)c(Cl)c1C(c1c(F)cccc1F)=NC2 [Example 6, 7-chloro-8-cyclopropyl-6-(2,6-difluorophenyl)-1-methyl-4H-[1,2,4]triazolo[4,3-a][1,4]benzodiazepine]	965	10.3	1.01			106	2.06
Fc1cccc(F)c1C1=NCc2nncn2-c2ccc(Br)c(Cl)c21 [Example 7, 8-bromo-7-chloro-6-(2,6-difluorophenyl)-4H-[1,2,4]triazolo[4,3-a][1,4]benzodiazepine]	205	24.2	1.38			56	1.56
Fc1ccccc1C1=NCc2nncn2-c2ccc(Br)c(Cl)c21 [Example 8, 8-bromo-7-chloro-6-(2-fluorophenyl)-4H-[1,2,4]triazolo[4,3-a][1,4]benzodiazepine]	576	12.1	1.08			58	1.58
O=c1[nH]nc2n1-c1ccc(Cl)c(Cl)c1C(c1c(F)cccc1F)=NC2 [Example 9, 7,8-dichloro-6-(2,6-difluorophenyl)-2,4-dihydro-[1,2,4]triazolo[4,3-a][1,4]benzodiazepin-1-one]	396	49.7	1.70			72	1.72
Fc1ccccc1C1=NCc2nnc(-c3cccnn3)n2-c2ccc(Cl)c(Cl)c21 [Example 10, 7,8-dichloro-6-(2-fluorophenyl)-1-pyridazin-3-yl-4H-[1,2,4]triazolo[4,3-a][1,4]benzodiazepine]	645	67.7	1.83			69	1.69
Fc1cccc(F)c1C1=NCc2nnc(C3CCOCC3)n2-c2ccc(Cl)c(Cl)c21 [Example 11, 7,8-dichloro-6-(2,6-difluorophenyl)-1-tetrahydropyran-4-yl-4H-[1,2,4]triazolo[4,3-a][1,4]benzodiazepine]	690	14.1	1.15			60	1.60
Fc1cccc(F)c1C1=NCc2nnc(-c3ccncn3)n2-c2ccc(Cl)c(Cl)c21 [Example 12, 7,8-dichloro-6-(2,6-difluorophenyl)-1-pyrimidin-4-yl-4H-[1,2,4]triazolo[4,3-a][1,4]benzodiazepine]	490	47.3	1.67			49	1.49
O=c1[nH]nc2n1-c1ccc(Br)c(Cl)c1C(c1c(F)cccc1F)=NC2 [Example 13, 8-bromo-7-chloro-6-(2,6-difluorophenyl)-2,4-dihydro-[1,2,4]triazolo[4,3-a][1,4]benzodiazepin-1-one]	331	53.5	1.73			52	1.52
